This passage reports inhibition and IC50 results from US11439607B2 (Paracelsus Neuroscience I, LLC, priority 2016, dated 2022).

This assay concerns the target T1, μ-opioid receptors (Homo sapiens, UniProt P35372).
T1 construct: CEREP (contract screening)
The assay can be described thus: Off target screen (CEREP panel) and dose response. The class given is binding.

A value given as a limit tells only on which side of the number the result lay.

T1 sequence (P35372 whole entry): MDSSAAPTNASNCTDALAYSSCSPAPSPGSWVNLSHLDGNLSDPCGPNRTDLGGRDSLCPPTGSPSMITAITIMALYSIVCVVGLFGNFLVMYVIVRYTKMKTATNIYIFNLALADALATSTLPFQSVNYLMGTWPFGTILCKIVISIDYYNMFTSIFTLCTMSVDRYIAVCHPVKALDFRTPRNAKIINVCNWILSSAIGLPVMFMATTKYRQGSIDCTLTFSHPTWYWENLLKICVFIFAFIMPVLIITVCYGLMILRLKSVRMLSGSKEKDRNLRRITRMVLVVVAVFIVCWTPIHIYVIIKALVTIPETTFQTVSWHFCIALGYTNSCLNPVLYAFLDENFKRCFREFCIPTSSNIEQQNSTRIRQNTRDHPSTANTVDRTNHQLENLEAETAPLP

`NC(=O)C(c1ccccc1)(c1ccc(F)cc1)c1ccc(F)cc1` [Senicapoc] yielded an inhibition at 10 µM (10 μM) of more than 50%. The molecule also registered an IC50 (full dose response curve, functional testing) of 12 µM.

As usually defined, the inhibition is the share of the control response that was lost under treatment. A word on the IC50: it is the concentration at which inhibition is half-maximal. A lower IC50 goes with greater potency in that assay.
